Experiment: β cryptoxanthin stabilizing test, Example 1A (water from Citrus unshiu paste with additive L-ascorbic acid, stored at 40° C.)
Format: physicochemical
Conditions: 0.002 parts by mass β cryptoxanthin (paste) in water
Procedure: The prepared paste derived from Citrus unshiu and water were mixed. Thus, a mixed solution was prepared. The mixing was conducted so that a mass ratio between β cryptoxanthin contained in the paste and the mixed water became 1 mg:50 g (0.002 parts by mass of β cryptoxanthin with respect to 100 parts by mass of finally obtained β cryptoxanthin-containing water). Vitamin C (L-ascorbic acid) was added to the mixed solution, which was then mixed by stirring. Thus, β cryptoxanthin-containing waters were prepared. The total amounts of L-ascorbic acid in the respective β cryptoxanthin-containing waters were set to 0.005, 0.01, 0.02, 0.05, 0.1, and 0.2 parts by mass with respect to 100 parts by mass of entire β cryptoxanthin-containing water by adding vitamin C. As a blank, a β cryptoxanthin-containing water was prepared in the same manner as described above except that vitamin C (L-ascorbic acid) was not added to the mixed solution. 50 g of six types of the β cryptoxanthin-containing waters and 50 g of the f3-cryptoxanthin-containing water as a blank were filled in the respective brown bottles. Thereafter, the brown bottles were subjected to a heat sterilization treatment under the condition at 90° C. for 30 minutes, which were then stored at 40° C. Sampling was conducted on a storage start date, after one month from the storage start date, and after two months from the same. The respective amounts of β cryptoxanthin in samples were measured by HPLC as shown below. Then, assuming that the amount of β cryptoxanthin on the storage start date was 100%, residual ratios of β cryptoxanthin were determined. The samples were treated at 70° C. for 30 minutes under alkaline conditions before being subjected to HPLC. By this treatment, β cryptoxanthin in the samples was saponified and was converted to a free form. After the treatment, the samples were subjected to a liquid-liquid extraction and were then concentrated. Thus, samples for HPLC were obtained. In the measurements of the amounts of β cryptoxanthin by HPLC, a HPLC system to which a column (J'sphere ODS-M80 (product name) with 250×4.6 mm I.D, produced by YMC Co., Ltd.) had been connected was used, and absorbances at 455 nm were measured by a UV detector ([…] (product name), produced by Hitachi Ltd.). Conditions of the column were as follows. • Mobile phase: acetonitrile/tetrahydrofuran (volume ratio: 95/5) containing 0.1% acetic acid and 50 ppm of α-tocopherol • Flow rate: 1.0 mL/minute • Column temperature: 55° C.

[1] = additive L-ascorbic acid 0 parts by mass (blank)
[2] = additive L-ascorbic acid 0.005 parts by mass
[3] = additive L-ascorbic acid 0.01 parts by mass
[4] = additive L-ascorbic acid 0.02 parts by mass
[5] = additive L-ascorbic acid 0.05 parts by mass
[6] = additive L-ascorbic acid 0.1 parts by mass
[7] = additive L-ascorbic acid 0.2 parts by mass

CC1=C(/C=C/C(C)=C/C=C/C(C)=C/C=C/C=C(C)/C=C/C=C(C)/C=C/C2=C(C)C[C@@H](O)CC2(C)C)C(C)(C)CCC1 [β cryptoxanthin]
Residual ratio of β cryptoxanthin Storage for one month (%) [1]: 76.9% | Residual ratio of β cryptoxanthin Storage for two months (%) [1]: 29.9% | Residual ratio of β cryptoxanthin Storage for one month (%) [2]: 83.8% | Residual ratio of β cryptoxanthin Storage for two months (%) [2]: 48.8% | Residual ratio of β cryptoxanthin Storage for one month (%) [3]: 96.7% | Residual ratio of β cryptoxanthin Storage for two months (%) [3]: 78.9% | Residual ratio of β cryptoxanthin Storage for one month (%) [4]: 100% | Residual ratio of β cryptoxanthin Storage for two months (%) [4]: 100% | Residual ratio of β cryptoxanthin Storage for one month (%) [5]: 98.0% | Residual ratio of β cryptoxanthin Storage for two months (%) [5]: 99.0% | Residual ratio of β cryptoxanthin Storage for one month (%) [6]: 94.4% | Residual ratio of β cryptoxanthin Storage for two months (%) [6]: 94.7% | Residual ratio of β cryptoxanthin Storage for one month (%) [7]: 68.3% | Residual ratio of β cryptoxanthin Storage for two months (%) [7]: 31.3%

— patent publication US20120156333A1, “STABILIZED BETA CRYPTOXANTHIN-CONTAINING WATER AND THE USE THEREOF” (ARKRAY, INC., priority 2010, published 2012)
